How the values were obtained:
[1] = system: CHEAL (Lambsquarters, Common); assay: Preemergence herbicidal evaluation; type: in vivo, Chenopodium album; settings: rated 4-5 weeks after treatment
Summary of the method: (§1)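 Greenhouse preemergence test: seed-soil mix sown on ~1 inch soil; aqueous acetone spray at equivalent of ~0.0156–0.500 kg/ha; greenhouse-held and watered; scored 0–9 visually at 4–5 weeks.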

[2] = system: SETVI (Foxtail, Green); assay: Preemergence herbicidal evaluation; type: in vivo, Setaria viridis; settings: rated 4-5 weeks after treatment
Summary of the method: as §1

[3] = system: ECHORC (Watergrass (Calif.)); assay: Preemergence weed control under flooded paddy conditions; type: in vivo, Echinochloa oryzoides; settings: rated 3-4 weeks after treatment
Summary of the method: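 Seeds or propagules sown in silt loam kept flooded 1.5-3 cm; compounds in 50/50 acetone/water pipetted into flood water at about 0.0313 to 0.500 kg/ha. Greenhouse; visual 0-9 rating versus untreated control 3-4 weeks after treatment.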

[4] = system: MOOVA (Monochoria); assay: as above; type: in vivo, Monochoria vaginalis; settings: rated 3-4 weeks after treatment
Summary of the method: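 Flooded-pot preemergence screen with silt loam and seeds in the upper 0.5 cm. Dose about 0.0313 to 0.500 kg/ha, delivered into flood water; visual 0-9 score after 3 to 4 weeks.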

[5] = system: TRZAWR (Wheat, Winter, cv Riband); assay: Postemergence herbicidal evaluation; type: in vivo, Triticum aestivum; settings: postemergence
Summary of the method: (§2)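 Two-week-old seedlings sprayed with compound in 50/50 acetone/water plus 0.5% TWEEN 20, at about 0.0156 to 0.500 kg/ha, nozzle at 40 psi. Kept in greenhouse; rated visually 4-5 weeks after treatment on a 0-9 scale versus control, repeat tests averaged.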

[6] = system: ECHCG (Barnyardgrass); assay: Preemergence herbicidal evaluation; type: in vivo, Echinochloa crus-galli; settings: rated 4-5 weeks after treatment
Summary of the method: as §1

[7] = system: ABUTH (Velvetleaf); assay: Postemergence herbicidal evaluation; type: in vivo, Abutilon theophrasti; settings: postemergence
Summary of the method: as §2

[8] = system: TRZAWR (Wheat, Winter, cv Riband); assay: Preemergence herbicidal evaluation; type: in vivo, Triticum aestivum; settings: rated 4-5 weeks after treatment
Summary of the method: as §1

[9] = system: IPOHE (Morningglory, Ivyleaf); assay: Postemergence herbicidal evaluation; type: in vivo, Ipomoea hederacea; settings: postemergence
Summary of the method: as §2

[10] = system: ORYSAT (Rice, Tebonnet); assay: Preemergence herbicidal evaluation; type: in vivo, Oryza sativa, (L.) Tebonnet; settings: rated 4-5 weeks after treatment
Summary of the method: as §1

[11] = system: IPOHE (Morningglory, Ivyleaf); assay: Preemergence herbicidal evaluation; type: in vivo, Ipomoea hederacea; settings: rated 4-5 weeks after treatment
Summary of the method: as §1

[12] = rate 0.0156 kg/ha, rating scale 0-9
[13] = rate 0.0313 kg/ha, rating scale 0-9
[14] = rate 0.0625 kg/ha, rating scale 0-9
[15] = rate 0.1250 kg/ha, rating scale 0-9
[16] = rate 0.2500 kg/ha, rating scale 0-9

Cn1c(C(F)(F)F)cc(=O)n(-c2cc(N=C3SCC(=O)N3Cc3ccc(Cl)cc3)c(Cl)cc2F)c1=O [Compound 145, 3-{4-Chloro-5-{[3-(p-chlorobenzyl)-4-oxo-2-thiazolidinylidene]amino}-2-fluorophenyl}-1-methyl-6-(trifluoromethyl)-2,4(1H,3H)-pyrimidinedione]
Preemergence herbicidal rating CHEAL [1, 12]: 7.0
Preemergence herbicidal rating CHEAL [1, 13]: 9.0
Preemergence herbicidal rating CHEAL [1, 14]: 7.0
Preemergence herbicidal rating CHEAL [1, 15]: 9.0
Preemergence herbicidal rating CHEAL [1, 16]: 9.0
Preemergence herbicidal rating SETVI [2, 12]: 1.0
Preemergence herbicidal rating SETVI [2, 13]: 0.0
Preemergence herbicidal rating SETVI [2, 14]: 7.0
Preemergence herbicidal rating SETVI [2, 15]: 3.0
Preemergence herbicidal rating SETVI [2, 16]: 7.0
herbicidal effect rating, ECHORC ([3]; 0.0313 kg/ha): 6.0
herbicidal effect rating, ECHORC ([3]; 0.0625 kg/ha): 6.0
herbicidal effect rating, ECHORC ([3]; 0.1250 kg/ha): 7.0
herbicidal effect rating, ECHORC ([3]; 0.2500 kg/ha): 7.0
herbicidal effect rating, MOOVA ([4]; 0.0313 kg/ha): 4.0
herbicidal effect rating, MOOVA ([4]; 0.0625 kg/ha): 6.0
herbicidal effect rating, MOOVA ([4]; 0.1250 kg/ha): 9.0
herbicidal effect rating, MOOVA ([4]; 0.2500 kg/ha): 9.0
herbicidal rating TRZAWR ([5]; rate 0.0156 kg/ha): 3.0
herbicidal rating TRZAWR ([5]; rate 0.0313 kg/ha): 3.0
herbicidal rating TRZAWR ([5]; rate 0.0625 kg/ha): 4.0
Preemergence herbicidal rating ECHCG [6, 12]: 0.0
Preemergence herbicidal rating ECHCG [6, 13]: 0.0
Preemergence herbicidal rating ECHCG [6, 14]: 1.0
Preemergence herbicidal rating ECHCG [6, 15]: 1.0
Preemergence herbicidal rating ECHCG [6, 16]: 1.0
herbicidal rating ABUTH ([7]; rate 0.0156 kg/ha): 9.0
herbicidal rating ABUTH ([7]; rate 0.0313 kg/ha): 9.0
herbicidal rating ABUTH ([7]; rate 0.0625 kg/ha): 9.0
Preemergence herbicidal rating TRZAWR [8, 12]: 0.0
Preemergence herbicidal rating TRZAWR [8, 13]: 1.0
Preemergence herbicidal rating TRZAWR [8, 14]: 1.0
Preemergence herbicidal rating TRZAWR [8, 15]: 0.0
Preemergence herbicidal rating TRZAWR [8, 16]: 1.0
herbicidal rating IPOHE ([9]; rate 0.0156 kg/ha): 9.0
herbicidal rating IPOHE ([9]; rate 0.0313 kg/ha): 9.0
herbicidal rating IPOHE ([9]; rate 0.0625 kg/ha): 9.0
Preemergence herbicidal rating ORYSAT [10, 12]: 1.0
Preemergence herbicidal rating ORYSAT [10, 13]: 1.0
Preemergence herbicidal rating ORYSAT [10, 14]: 2.0
Preemergence herbicidal rating ORYSAT [10, 15]: 3.0
Preemergence herbicidal rating ORYSAT [10, 16]: 1.0
Preemergence herbicidal rating IPOHE [11, 12]: 0.0
Preemergence herbicidal rating IPOHE [11, 13]: 0.0
Preemergence herbicidal rating IPOHE [11, 14]: 0.0
Preemergence herbicidal rating IPOHE [11, 15]: 7.0
Preemergence herbicidal rating IPOHE [11, 16]: 5.0

CN1C(=O)C(CC(=O)NO)SC1=Nc1cc(-n2c(=O)cc(C(F)(F)F)n(C)c2=O)c(F)cc1Cl (stereo not drawn) [Compound 162, 2-{{2-Chloro-5-[3,6-dihydro-3-methyl-2,6-dioxo-4-(trifluoromethyl)-1(2H)-pyrimidinyl]-4-fluorophenyl}imino}-3-methyl-4-oxo-5-thiazolidineacetohydroxamic acid]
Preemergence herbicidal rating CHEAL ([1]; 0.0156 kg/ha): 9.0
Preemergence herbicidal rating CHEAL ([1]; 0.0313 kg/ha): 9.0
Preemergence herbicidal rating CHEAL ([1]; 0.0625 kg/ha): 9.0
Preemergence herbicidal rating CHEAL ([1]; 0.1250 kg/ha): 9.0
Preemergence herbicidal rating CHEAL ([1]; 0.2500 kg/ha): 9.0
Preemergence herbicidal rating SETVI ([2]; 0.0156 kg/ha): 9.0
Preemergence herbicidal rating SETVI ([2]; 0.0313 kg/ha): 9.0
Preemergence herbicidal rating SETVI ([2]; 0.0625 kg/ha): 9.0
Preemergence herbicidal rating SETVI ([2]; 0.1250 kg/ha): 9.0
Preemergence herbicidal rating SETVI ([2]; 0.2500 kg/ha): 9.0
herbicidal effect rating, ECHORC ([3]; 0.0313 kg/ha): 6.0
herbicidal effect rating, ECHORC ([3]; 0.0625 kg/ha): 7.0
herbicidal effect rating, ECHORC ([3]; 0.1250 kg/ha): 8.0
herbicidal effect rating, ECHORC ([3]; 0.2500 kg/ha): 8.0
herbicidal effect rating, MOOVA ([4]; 0.0313 kg/ha): 7.0
herbicidal effect rating, MOOVA ([4]; 0.0625 kg/ha): 7.0
herbicidal effect rating, MOOVA ([4]; 0.1250 kg/ha): 7.0
herbicidal effect rating, MOOVA ([4]; 0.2500 kg/ha): 9.0
herbicidal rating TRZAWR ([5]; rate 0.0156 kg/ha): 3.5
herbicidal rating TRZAWR ([5]; rate 0.0313 kg/ha): 3.5
herbicidal rating TRZAWR ([5]; rate 0.0625 kg/ha): 3.5
Preemergence herbicidal rating ECHCG ([6]; 0.0156 kg/ha): 1.0
Preemergence herbicidal rating ECHCG ([6]; 0.0313 kg/ha): 4.0
Preemergence herbicidal rating ECHCG ([6]; 0.0625 kg/ha): 8.0
Preemergence herbicidal rating ECHCG ([6]; 0.1250 kg/ha): 9.0
Preemergence herbicidal rating ECHCG ([6]; 0.2500 kg/ha): 9.0
herbicidal rating ABUTH ([7]; rate 0.0156 kg/ha): 9.0
herbicidal rating ABUTH ([7]; rate 0.0313 kg/ha): 9.0
herbicidal rating ABUTH ([7]; rate 0.0625 kg/ha): 9.0
Preemergence herbicidal rating TRZAWR ([8]; 0.0156 kg/ha): 0.0
Preemergence herbicidal rating TRZAWR ([8]; 0.0313 kg/ha): 3.0
Preemergence herbicidal rating TRZAWR ([8]; 0.0625 kg/ha): 7.0
Preemergence herbicidal rating TRZAWR ([8]; 0.1250 kg/ha): 7.0
Preemergence herbicidal rating TRZAWR ([8]; 0.2500 kg/ha): 9.0
herbicidal rating IPOHE ([9]; rate 0.0156 kg/ha): 9.0
herbicidal rating IPOHE ([9]; rate 0.0313 kg/ha): 9.0
herbicidal rating IPOHE ([9]; rate 0.0625 kg/ha): 9.0
Preemergence herbicidal rating ORYSAT ([10]; 0.0156 kg/ha): 2.0
Preemergence herbicidal rating ORYSAT ([10]; 0.0313 kg/ha): 3.0
Preemergence herbicidal rating ORYSAT ([10]; 0.0625 kg/ha): 5.0
Preemergence herbicidal rating ORYSAT ([10]; 0.1250 kg/ha): 6.0
Preemergence herbicidal rating ORYSAT ([10]; 0.2500 kg/ha): 8.0
Preemergence herbicidal rating IPOHE ([11]; 0.0156 kg/ha): 0.0
Preemergence herbicidal rating IPOHE ([11]; 0.0313 kg/ha): 0.0
Preemergence herbicidal rating IPOHE ([11]; 0.0625 kg/ha): 4.0
Preemergence herbicidal rating IPOHE ([11]; 0.1250 kg/ha): 9.0
Preemergence herbicidal rating IPOHE ([11]; 0.2500 kg/ha): 9.0

CCOC(=O)CN1C(=O)C(C(=O)OCC)SC1=Nc1cc(-n2c(=O)cc(C(F)(F)F)n(C)c2=O)c(F)cc1Cl (stereo not drawn) [Compound 127, 5-Carboxy-2-{{2-chloro-5-[3,6-dihydro-3-methyl-2,6-dioxo-4-(trifluoromethyl)-1(2H)-pyrimidinyl]-4-fluorophenyl}imino}-4-oxo-3-thiazolidineacetic acid, diethyl ester]
Preemergence herbicidal rating CHEAL ([1]; rate 0.0313 kg/ha): 9.0
Preemergence herbicidal rating CHEAL ([1]; rate 0.0625 kg/ha): 9.0
Preemergence herbicidal rating CHEAL ([1]; rate 0.1250 kg/ha): 9.0
Preemergence herbicidal rating CHEAL ([1]; rate 0.2500 kg/ha): 9.0
Preemergence herbicidal rating CHEAL ([1]; rate 0.5000 kg/ha): 9.0
Preemergence herbicidal rating SETVI ([2]; rate 0.0313 kg/ha): 0.0
Preemergence herbicidal rating SETVI ([2]; rate 0.0625 kg/ha): 0.0
Preemergence herbicidal rating SETVI ([2]; rate 0.1250 kg/ha): 9.0
Preemergence herbicidal rating SETVI ([2]; rate 0.2500 kg/ha): 9.0
Preemergence herbicidal rating SETVI ([2]; rate 0.5000 kg/ha): 9.0
herbicidal effect rating, ECHORC ([3]; 0.0313 kg/ha): 4.0
herbicidal effect rating, ECHORC ([3]; 0.0625 kg/ha): 7.0
herbicidal effect rating, ECHORC ([3]; 0.1250 kg/ha): 9.0
herbicidal effect rating, ECHORC ([3]; 0.2500 kg/ha): 9.0
herbicidal effect rating, MOOVA ([4]; 0.0313 kg/ha): 3.0
herbicidal effect rating, MOOVA ([4]; 0.0625 kg/ha): 3.0
herbicidal effect rating, MOOVA ([4]; 0.1250 kg/ha): 5.0
herbicidal effect rating, MOOVA ([4]; 0.2500 kg/ha): 7.0
herbicidal rating TRZAWR ([5]; rate 0.0156 kg/ha): 2.5
herbicidal rating TRZAWR ([5]; rate 0.0313 kg/ha): 2.5
herbicidal rating TRZAWR ([5]; rate 0.0625 kg/ha): 3.5
herbicidal rating TRZAWR ([5]; rate 0.1250 kg/ha): 6.0
Preemergence herbicidal rating ECHCG ([6]; rate 0.0313 kg/ha): 0.0
Preemergence herbicidal rating ECHCG ([6]; rate 0.0625 kg/ha): 0.0
Preemergence herbicidal rating ECHCG ([6]; rate 0.1250 kg/ha): 0.0
Preemergence herbicidal rating ECHCG ([6]; rate 0.2500 kg/ha): 0.0
Preemergence herbicidal rating ECHCG ([6]; rate 0.5000 kg/ha): 0.0
herbicidal rating ABUTH ([7]; rate 0.0156 kg/ha): 9.0
herbicidal rating ABUTH ([7]; rate 0.0313 kg/ha): 9.0
herbicidal rating ABUTH ([7]; rate 0.0625 kg/ha): 9.0
herbicidal rating ABUTH ([7]; rate 0.1250 kg/ha): 9.0
Preemergence herbicidal rating TRZAWR ([8]; rate 0.0313 kg/ha): 0.0
Preemergence herbicidal rating TRZAWR ([8]; rate 0.0625 kg/ha): 0.0
Preemergence herbicidal rating TRZAWR ([8]; rate 0.1250 kg/ha): 0.0
Preemergence herbicidal rating TRZAWR ([8]; rate 0.2500 kg/ha): 0.0
Preemergence herbicidal rating TRZAWR ([8]; rate 0.5000 kg/ha): 7.0
herbicidal rating IPOHE ([9]; rate 0.0156 kg/ha): 9.0
herbicidal rating IPOHE ([9]; rate 0.0313 kg/ha): 9.0
herbicidal rating IPOHE ([9]; rate 0.0625 kg/ha): 9.0
herbicidal rating IPOHE ([9]; rate 0.1250 kg/ha): 9.0
Preemergence herbicidal rating ORYSAT ([10]; rate 0.0313 kg/ha): 0.0
Preemergence herbicidal rating ORYSAT ([10]; rate 0.0625 kg/ha): 0.0
Preemergence herbicidal rating ORYSAT ([10]; rate 0.1250 kg/ha): 0.0
Preemergence herbicidal rating ORYSAT ([10]; rate 0.2500 kg/ha): 0.0
Preemergence herbicidal rating ORYSAT ([10]; rate 0.5000 kg/ha): 3.0
Preemergence herbicidal rating IPOHE ([11]; rate 0.0313 kg/ha): 0.0
Preemergence herbicidal rating IPOHE ([11]; rate 0.0625 kg/ha): 0.0
Preemergence herbicidal rating IPOHE ([11]; rate 0.1250 kg/ha): 1.0
Preemergence herbicidal rating IPOHE ([11]; rate 0.2500 kg/ha): 9.0
Preemergence herbicidal rating IPOHE ([11]; rate 0.5000 kg/ha): 9.0
